Values joined by “and” are separate entries in the source; they are usually repeats but may differ in a detail not shown here. Identical values can stand only once. Like-named read-outs stand apart in the source and are kept apart here.
Tests used:
[1] = test system: Jurkat E6.1 cells; design: method as in Awang et al. (2015) [26]; settings: ref Awang et al. (2015) [26]; cited from earlier work
[2] = test system: CCL-119 cells; assay: Alkaline comet assay; format: cell-based; settings: 1 hour of exposure
Procedure: VCR was used as a positive control, and untreated cells were used as a negative control in this assay. The cells were incubated for 1 hour. After incubation, cells in each well were transferred to the Eppendorf tube to centrifuge for 5 minutes at 4°C by using a refrigerated microcentrifuge. The supernatant was removed, and the samples were washed with 1 mL of cold PBS. This process was repeated 3 times. After completion of the process, the supernatant was removed, and the pellet was left for a while on top of the ice while preparing the slide.
About 140 µL of normal melting agar (NMA) is pipetted on top of the fully frosted slide, and a cover slip is put on the agar for 5 minutes or until the agar fully solidifies. After that, the cover slip was removed, and 80 µL of low melting agar (LMA) was added to an Eppendorf tube containing the pellet of cells. The suspension was then transferred into a frosted slide with NMA agar. The cover slip was then put back on top of the frosted slide for 10 minutes or until dry. Next, the slide was transferred into a Coplin jar that contained lysis buffer solution and Triton X-100. The slides were then incubated at 4°C overnight. The slides were arranged on an electrophoresis tank filled with electrophoresis buffer for 20 minutes. Electrophoresis is done for another 20 minutes at 25 V with 300 mA. The slides were washed with a neutralization buffer solution 3 times at a 5-minute time interval. Finally, 30 µL of ethidium bromide (50 µg/mL) was added, and the slide was observed by using fluorescence microscopy (OLYMPUS BX51TR). CometScore software is used to analyze the DNA damage of the cells. The comet assay was performed under alkaline conditions (pH > 13) to detect both single- and double-strand DNA breaks.

[3] = test system: WIL2-NS cells; design: method as in Rasli et al. (2023); settings: non-cancerous cells; 24 hours of exposure; graph referred to earlier paper; ref Rasli et al. (2023); cited from earlier work
[4] = test system: CCL-119 cells; assay: Cell cycle analysis (PI/RNase staining); format: cell-based; settings: 24 hours at IC50; single replicates n1-n3
Procedure: The cells were cultured and seeded in a 6-well plate at 1 x 10^6 cells/mL. VCR was used as a positive control, and untreated cells were used as a negative control in this assay. The concentration of the compounds and VCR was followed by IC50 values that were taken from the MTT assay.
After 24 hours of incubation, all cells in the plate were transferred to the Eppendorf tube and centrifuged for 5 minutes at 4°C at 1500 rpm. After centrifuging, the supernatant was removed, and cells were washed with 500 µL cold PBS three times. The pellet was fixed by using 70% ethanol overnight at −20°C. Next, the samples were stained with 500 µL of PI/RNase staining buffer and incubated for 15 minutes. The samples were then transferred into Falcon tubes. The data was recorded using a flow cytometer and analyzed using ModFit LT software.

[5] = in vitro; settings: human
Procedure: (§1) The T-acute lymphoblastic leukemia cell line, CCRF-CEM (CCL-119™), and a non-cancerous cell, WIL2-NS (CRL-8155™), were purchased from the American Type Culture Collection (ATCC). Both are suspension types of cells and were cultured in Roswell Park Memorial Institute Medium 1640 (RPMI-1640) (Sigma-Aldrich), supplemented with 10% Fetal Bovine Serum (FBS) (Capricorn Scientific) and 1% penicillin-streptomycin (Nacalai Tesque) to obtain the complete growth medium and were incubated at 37 °C with a 5% CO2 incubator. Both suspension cells are used for tests when the cells’ passage becomes passage 3–10 (maximum).
(§2) All stock solutions of the organotin (IV) dithiocarbamate compounds were prepared at 10 mM and dissolved in dimethyl sulphoxide (DMSO) (ChemAR®). The stock solutions were stored at 4°C; fresh dilutions were made by adding the RPMI-1640 medium before the experiment. The dilution is carried out using the serial dilution method to obtain the desired concentrations, which are 5 µM, 2.5 µM, 1.25 µM, 0.63 µM, 0.32 µM, and 0.16 µM in this study. Vincristine (VCR) is used as a positive control in this study.
(§3) Both CCL-119 and WIL2-NS cells were seeded in a 96-well plate at a final concentration of 5 x 10^5 cells/well and treated with 5 µM, 2.5 µM, 1.25 µM, 0.63 µM, 0.32 µM, and 0.16 µM of organotin (IV) dithiocarbamate compound for 24 hours at 37°C with 5% CO2. VCR was used as a positive control in this study, while cells without treatment were used as a negative control. After 24 hours of exposure, 20 µL of MTT (Merck) salt solution was added into each well and incubated for another 4 hours. The plate was wrapped with aluminium foil as MTT salt is light sensitive. After 4 hours, the purple crystal formazan was formed. All the medium was removed carefully from each well, and 200 µL DMSO was added to each well to dissolve the purple formazan crystal. Then, the plates were incubated for an additional 15 minutes. The results were analyzed and recorded using an ELISA microplate reader at 570 nm. The data was then plotted into a graph, and IC50 values were determined.
(§4) The selectivity index (SI) is determined by dividing the cytotoxic activity (IC50 value) of each compound on a non-cancerous cell line (WIL2-NS) by the leukemia cell line (CCL-119). […] WIL2- NS cell lines were selected as the comparator because it is a non-cancerous human B lymphoblast cell line, which is like CCL-119 (T-lymphoblastic leukemia), derived from lymphocytes. This choice ensures that comparisons are made between biologically similar cell types, minimizing variability that could arise from differences in tissue origin or lineage.

[6] = test system: CCL-119 cells; assay: MTT cytotoxicity assay; settings: for IC50: read-out: IC50 (µM) CCL-119; for Selectivity Index (SI): IC50 WIL2-NS / IC50 CCL-119; for Selectivity Index (SI) / cell viability at 0.31 µM / cell viability at 0.63 µM / cell viability at 1.25 µM / cell viability at 2.50 µM / cell viability at 5.00 µM: 24 hours; for cell viability at 0.31 µM / cell viability at 0.63 µM / cell viability at 1.25 µM / cell viability at 2.50 µM / cell viability at 5.00 µM: single replicates n1-n3, untreated = 100.00; for cell viability at 2.50 µM: 2.5 µM
Procedure: as §1, §2, §3, §4

[7] = Mode of cell death, Annexin V-FITC/PI staining (flow cytometry); format: cell-based; settings: human, Viable (Q3)
Procedure: (§5) The mode of cell death can be observed through the Annexin V-FITC/PI staining (BD, USA). The result of this test is either apoptosis or necrosis. […] VCR was used as a positive control, while cells without any treatment were used as a negative control. Then, the plate was incubated for 24 hours. After the incubation, the cell suspension in each well was collected into different Eppendorf tubes. The tubes were then centrifuged for 5 minutes at 1500 rpm at 4°C. After the centrifuge, the supernatant in the tubes was removed, and the cell pellets were washed twice with cold PBS. Then, centrifuge the tubes again and remove the supernatant. Next, 100 µL of Annexin V binding buffer was resuspended in each tube, and 5 µL Annexin V-FITC was pipetted into the tube to stain the cells for 15 minutes at room temperature, dark. After that, 5 µL of propidium iodide was piped into the tube for 5 minutes. The staining process is done in dark conditions. Lastly, the sample was transferred into the Falcon tube, and each tube was resuspended in 400 µL of Annexin V binding buffer. The sample was analyzed using a flow cytometer (BD FACS Canto II) within one hour.

[8] = test system: CCL-119 cells; assay: as above; format: cell-based; settings: for Early Apoptosis (Q4) / Late Apoptosis (Q2) / Necrosis (Q1) / Viable (Q3): 24 hours at IC50, single replicates n1-n3; for cell death through apoptosis (population of cells): early + late apoptosis
Procedure: as §5

Compound	Tail moment ([2]; mean ± SEM) [A.U]	percentage of DNA intensity in the tail ([2]; mean ± SEM) [%]	% DNA intensity ([2]; single replicates n1-n3)	Tail moment ([2]; single replicates n1-n3)	IC50 [3] [µM]	cells in G0/G1 phase [4]	cells in G2/M phase [4]	cells in S phase [4]	Selectivity Index (SI) [6]	Early Apoptosis (Q4) [8]	Late Apoptosis (Q2) [8]	Necrosis (Q1) [8]	cell death through apoptosis (population of cells) ([8]; 24 hours, treated at IC50) [%]	cell viability at 0.31 µM [6]	cell viability at 0.63 µM [6]	cell viability at 1.25 µM [6]	cell viability at 2.50 µM [6]	cell viability at 5.00 µM [6]	Viable (Q3) [8]	other results
CCCCN(C(=S)[S][Sn]([c]1ccccc1)([c]1ccccc1)[c]1ccccc1)c1ccccc1 [triphenyltin (IV) butylphenyl dithiocarbamate]	–	–	–	–	–	–	–	–	–	–	–	–	–	–	–	–	–	–	–	mode of cell death in Jurkat E6.1 cells [1]: predominant induction of early-phase apoptotic cell death
CC[C@]1(O)C[C@H]2CN(CCc3c([nH]c4ccccc34)[C@@](C(=O)OC)(c3cc4c(cc3OC)N(C=O)[C@H]3[C@@](O)(C(=O)OC)[C@H](OC(C)=O)[C@]5(CC)C=CCN6CC[C@]43[C@@H]65)C2)C1 [VCR, Vincristine, reference compound]	4.17 ± 0.74	8.48 ± 1.09	6.493% and 8.677% and 10.2647%	2.837 A.U and 4.286 A.U and 5.38 A.U	2.89 ± 0.03	36.70% and 30.32% and 29.02%	5.35% and 8.00% and 3.69%	57.95% and 61.68% and 67.28%	below 2	39.2% and 38.7% and 37.4%	19% and 17.2% and 17.9%	0.45% and 0.54% and 0.51%	56.46	–	–	–	–	–	–	viability at 24 h, 0.63 µM ([5]; cell viability at 0.63 µM): 50.6%; viability at 24 h, 1.25 µM ([5]; cell viability at 1.25 µM): 46.3%; viability at 24 h, 5 µM ([5]; cell viability at 5.00 µM): 41.6%; IC50 ([6]; 24 h): 1.82 ± 1.53 µM; Selectivity Index (SI) ([6]; listed as Vincristine (VCR)): 1.59; viability at 24 h [7]: 44.4%
CCN(CC)C(=S)[S][Sn]([c]1ccccc1)([c]1ccccc1)[c]1ccccc1 [ODTC 5, triphenyltin (IV) diethyl dithiocarbamate]	12.61 ± 1.56	11.59 ± 1.18	13.8528% and 11.0312% and 9.872%	15.0222 A.U and 13.1179 A.U and 9.676 A.U	0.79 ± 0.05	64.02% and 86.49% and 54.56%	30.58% and 13.51% and 45.44%	5.4% and 0%	4.16	10.9% and 47.3% and 16.6%	6.4% and 17.1% and 18.5%	12.9% and 0.1%	–	37.70% and 42.75% and 36.81%	39.38% and 30.79% and 37.35%	35.19% and 39.06% and 29.63%	37.67% and 28.99% and 27.66%	16.16% and 17.11% and 21.93%	69.8% and 35.6% and 64.8%	population of cells undergoing necrosis ([8]; 24 hours, treated at IC50): 4.37%
CCN(CC)C(=S)[S][Sn]([CH3])([CH3])[S]C(=S)N(CC)CC [ODTC 7, dimethyltin (IV) diethyl dithiocarbamate]	–	–	6.521% and 7.002% and 7.823%	5.822 A.U and 6.511 A.U and 7.52 A.U	0.5 ± 0.34	70.20% and 67.80% and 60.00%	1.80% and 0.20% and 1.00%	28.00% and 32.00% and 39.00%	–	24.7% and 24.4% and 29.9%	70.3% and 71.5% and 65.3%	0.7% and 0.4%	95.6	53.85% and 25.00% and 27.93%	22.79% and 38.51% and 14.94%	25.40% and 25.00% and 5.26%	11.18% and 20.05% and 9.03%	4.79% and 42.34% and 14.76%	4.4% and 3.7% and 4.2%	DNA damage / genotoxic effect (in words) ([2]; damage when TM > 5 A.U. and TI > 10%): no DNA damage; IC50 ([6]; 24 hours of exposure, mean ± SEM, n = 3): 0.5 ± 0.3 µM
CC(C)N(C(=S)[S][Sn]([c]1ccccc1)([c]1ccccc1)[c]1ccccc1)C(C)C [ODTC 3, triphenyltin (IV) diisopropyl dithiocarbamate]	22.25 ± 0.93	10.79 ± 0.72	9.366% and 11.3439% and 11.6624%	20.8823 A.U and 21.8477 A.U and 24.0274 A.U	0.75 ± 0.07	9.54% and 24.65% and 21.14%	90.46% and 75.18% and 78.7%	0% and 0.17% and 0.16%	3.13	35.9% and 47.6% and 15.9%	10.8% and 9% and 12%	0.1% and 0% and 1.5%	–	47.07% and 58.65% and 40.35%	40.17% and 50.04% and 42.00%	42.27% and 42.45% and 31.66%	35.57% and 24.06% and 25.57%	27.21% and 27.19% and 34.26%	53.2% and 43.4% and 70.6%	–
